From paper PMC6832230, “Anti-Inflammatory Activity of Some Characteristic Constituents from the Vine Stems of Spatholobus suberectus” (Molecules, 2019)
“Also recorded” adds a separate entry of the source. Where two headings read alike, the source gives them in different places.

What was measured:
Cytotoxicity assay (MTT) = settings: mouse
Method: (§3) The toxicities of different concentrations of compounds to cells were evaluated using the MTT assay [32, 33]. Firstly, the RAW 264.7 cells were maintained in DMEM with 10% FBS at 37 °C in a humid atmosphere containing 5% CO2. Then, the cells were seeded in 96-well plates (3 × 10^4 cells/well) after being passaged three times at a 1:3 split ratio. […] After being cultured for 24 h, the supernatant (100 μL) was transferred out and MTT (5 mg/mL, 20 μL for each well) was added, and the mixed solvent of 0.012 M HCl, 5% i-PrOH, and 10% sodium dodecyl sulfate (100 μL) was added 4 h later. The absorbance value was measured at 492 nm by a Thermo Multiskan MK3 microplate reader (Thermo-Labsystem, Franklin, MA, USA).

[1] = tested on: nitric oxide (NO) production in RAW264.7 macrophages stimulated by lipopolysaccharide; assay: NO inhibition assay (Griess method) in LPS-stimulated RAW264.7 cells; format: cell-based; settings: for IC50: read-out: IC50 of inhibition of NO production; for SI (selectivity index): calculated from CC50 and IC50
Source text: As a kind of pro-inflammatory mediator, NO plays a complex role and participates in many different kinds of inflammatory reactions, the level of which usually varies to different pathological degrees. The isolated novel compounds and 10 known ones in this research were chosen to evaluate the activity of inhibiting NO released by RAW264.7 cells after being stimulated by LPS.
The Griess method is generally used for determining NO concentration in anti-inflammatory experiments. The supernatant removed from the 96-well plates mentioned in Section 3.3.1 was interacted with Griess reagent (100 μL), and the absorbance was measured at 540 nm after 15 min. Two drugs, L-NIL and IND, were used as positive controls for comparative analysis in the test.
(§1) The IC50 values for NO inhibitory effects were calculated using SPSS v.20.0 (SPSS Inc., Chicago, IL, USA) and results were given as means ± SD. The mRNA expression levels were compared using variance analysis with GraphPad Prism 7.0 (GraphPad Software Inc., San Diego, CA, USA), and results were expressed as means ± SEM. All tests were carried out in triplicate.

iNOS mRNA = assay: qPCR assay of iNOS mRNA expression in LPS-stimulated RAW264.7 cells; format: cell-based; settings: 24 h
Method: (§2) The RAW264.7 cells were seeded in 12-well plates at 3 × 10^4 cells/well; after being stimulated by LPS (1.0 μg/mL) and treated with two different concentrations of compounds for 24 h, the total RNA was extracted from the cells with Trizol reagent (Invitrogen, Thermo Fisher Scientific Inc., Waltham, MA, USA). After measuring the concentration, 1 μg of total RNA was used to obtain complementary DNA (cDNA) with a qRT super mix (Bimake Co., Ltd., Houston, SD, USA). The amplification of cDNA was carried out on a Quantitative RT-PCR system (Agilent Technologies, Stratagene, Inc., Santa Clara, CA, USA) using SYBR green qPCR master mix (Bimake Co., Ltd., Houston, SD, USA). The thermal cycling conditions were as follows: 95 °C for 10 min, 40 cycles of 95 °C for 30 s, 55 °C for 1 min, and 72 °C for 1 min, followed by 95 °C for 1 min, 55 °C for 30 s, and 95 °C for 30 s.
as §1

IL-1β mRNA = assay: qPCR assay of IL-1β mRNA expression in LPS-stimulated RAW264.7 cells; format: cell-based; settings: 24 h
Method: as §2, §1

COX-2 mRNA = assay: qPCR assay of COX-2 mRNA expression in LPS-stimulated RAW264.7 cells; format: cell-based; settings: 24 h
Method: as §2, §1

IL-6 mRNA = assay: qPCR assay of IL-6 mRNA expression in LPS-stimulated RAW264.7 cells; format: cell-based; settings: 24 h
Method: After measuring the concentration, 1 μg of total RNA was used to obtain complementary DNA (cDNA) with a qRT super mix (Bimake Co., Ltd., Houston, SD, USA). The amplification of cDNA was carried out on a Quantitative RT-PCR system (Agilent Technologies, Stratagene, Inc., Santa Clara, CA, USA) using SYBR green qPCR master mix (Bimake Co., Ltd., Houston, SD, USA). The thermal cycling conditions were as follows: 95 °C for 10 min, 40 cycles of 95 °C for 30 s, 55 °C for 1 min, and 72 °C for 1 min, followed by 95 °C for 1 min, 55 °C for 30 s, and 95 °C for 30 s. […] The mRNA expression levels were compared using variance analysis with GraphPad Prism 7.0 (GraphPad Software Inc., San Diego, CA, USA), and results were expressed as means ± SEM. All tests were carried out in triplicate.

TNF-α mRNA = assay: qPCR assay of TNF-α mRNA expression in LPS-stimulated RAW264.7 cells; format: cell-based; settings: 24 h
Method: as §2, §1

[2] = RAW 264.7 cells, CC50 (median cytotoxic concentration), RAW 264.7 cells, MTT, 24 h, n = 3, >200: CC50 could not be obtained, cell survival rate >98% at 200–6.25 μM
[3] = Mus musculus, RAW264.7, 24 h, RAW264.7 cells, LPS 1 μg/mL, 24 h, Griess, n = 3, mean ± SD
[4] = LPS 1.0 μg/mL, RAW264.7 cells, concentration not given
[5] = at 5 μM and 10 μM, LPS-stimulated RAW264.7 cells
[6] = RAW264.7 cells, LPS 1 μg/mL, 24 h, Griess, n = 3, mean ± SD
[7] = at 20 μM and 30 μM, vs LPS group, RAW264.7 cells
[8] = at 40 μM and 50 μM, LPS-stimulated RAW264.7 cells

Method for RAW 264.7 cells: as §3

| Compound | CC50 at 24 h (Cytotoxicity assay (MTT); [2]) [µM] | IC50 [1, 3] [µM] | SI (selectivity index) [1] | effect on mRNA expression of iNOS (iNOS mRNA; [4]) | effect on mRNA expression of COX-2 (COX-2 mRNA; [4]) | effect on mRNA expression of TNF-α (TNF-α mRNA; [4]) | other results |
| --- | --- | --- | --- | --- | --- | --- | --- |
| COc1ccc2c(c1)c(CC(=O)O)c(C)n2C(=O)c1ccc(Cl)cc1 [IND, indomethacin, reference compound] | 633 ± 75.1 | 55.4 ± 3.71 | 11.43 | – | – | – | – |
| COC1=CC(=O)C=C(OC)C1=O [Compound 1, 2,6-dimethoxy-1,4-benzoquinone] | – | – | 4.61 | can reduce | can reduce | can reduce | effect on mRNA expression of iNOS (iNOS mRNA; [5]): markedly reduced; effect on mRNA expression of IL-1β (IL-1β mRNA; [5]): markedly reduced; effect on mRNA expression of COX-2 (COX-2 mRNA; [5]): markedly reduced; effect on mRNA expression of IL-6 (IL-6 mRNA; [5]): markedly reduced; CC50 at 24 h (Cytotoxicity assay (MTT); RAW 264.7 cells): 26.2 ± 1.26 µM; effect on mRNA expression of TNF-α (TNF-α mRNA; [5]): markedly reduced; inhibition of NO production compared with L-NIL (in words) ([1]; LPS-stimulated RAW264.7 cells): potent inhibition; IC50 ([1]; Mus musculus, RAW264.7, 24 h): 5.69 ± 0.28 µM |
| COc1ccc(-c2coc3cc(O)ccc3c2=O)cc1 [Compound 11, formononetin] | 103 ± 9.56 | 21.1 ± 4.8 | 4.88 | notably downregulated | notably downregulated | – | – |
| COc1ccc([C@@H]2COc3cc(O)ccc3C2)c(O[C@@H]2O[C@H](CO)[C@@H](O)[C@H](O)[C@H]2O)c1 [Compound 15, (3R)-vestitol-2′-O-β-D-glucopyranoside] | > 200 | > 200 | <1.98 | – | – | – | – |
| O=C(/C=C/c1ccc(O)cc1)c1ccc(O)cc1O [Compound 10, isoliquiritigenin] | 133 ± 2.11 | 6.78 ± 0.59 | 19.68 | can reduce | can reduce | can reduce; also recorded: significantly downregulate | – |
| COc1c(O)ccc2c1OC[C@H](c1cc3c(cc1O)OCO3)[C@H]2O [Compound 2, (3S,4R)-7,2′-dihydroxy-8-methoxy-4′,5′-methylenedioxy-isoflavan-4-ol] | > 200 | 46.3 ± 5.83 | >4.32 | – | – | – | – |
| CC(=N)NCCCC[C@H](N)C(=O)O [L-NIL, L-N^6-(1-iminoethyl)-lysine, reference compound] | > 200 | – | >10.48 | – | – | – | IC50 ([1]; Mus musculus, RAW264.7, 24 h): 19.1 ± 1.18 µM |
| O=C1C[C@@H](c2ccc(O)cc2)Oc2cc(O)ccc21 [Compound 8, liquiritigenin] | > 200 | 16.3 ± 4.45 | 19.25 | – | – | significantly downregulate | – |
| COc1ccc(C2COc3cc(OC4OC(CO)C(O)C(O)C4O)ccc3C2O)c(O)c1 [Compound 14, (3S,4R)-4,2′-dihydroxy-4′-methoxy-isoflavanol-7-glucopyranoside] | > 200 | 123 ± 9.92 | 5.86 | – | – | – | – |
| COc1ccc(-c2coc3cc([O-])ccc3c2=O)cc1.[Na+] [Compound 7, formononetin sodium] | – | – | 14.73 | negate the effect | – | negate the effect | effect on mRNA expression of IL-1β (IL-1β mRNA; [4]): negate the effect; effect on mRNA expression of IL-6 (IL-6 mRNA; [4]): negate the effect; IC50 [1, 6]: 22.8 ± 0.55 µM |
| CCCCCC(=O)CCC(=O)OCCc1ccc(O)c(OC)c1 [Compound 5, Homovanillyl-4-oxo-nonanoate] | > 200 | 45.9 ± 4.76 | >4.36 | – | – | – | – |
| O=c1c(-c2ccc(O)cc2)coc2cc(O)cc(O)c12 [Compound 9, genistein] | – | 16.9 ± 3.39 | 210.84 | can reduce | can reduce | can reduce | effect on mRNA expression of iNOS (iNOS mRNA; [7]): strikingly downregulated; effect on mRNA expression of COX-2 (COX-2 mRNA; [7]): strikingly downregulated; CC50 at 24 h (Cytotoxicity assay (MTT)): > 200 µM; effect on mRNA expression of TNF-α (TNF-α mRNA; [7]): strikingly downregulated |
| 4,7,2′-trihydroxy-4′-methoxy-isoflavanol [Compound 3] | – | – | – | – | – | – | CC50 (RAW 264.7 cells): > 200 µM; effect on mRNA expression of IL-1β (IL-1β mRNA; [8]): could inhibit; IC50 [1, 6]: 35.4 ± 2.92 µM |
| O=c1c(-c2ccc(O)cc2)coc2cc(O[C@@H]3O[C@H](CO)[C@@H](O)[C@H](O)[C@H]3O)cc(O)c12 [Compound 13, genistin] | > 200 | 36.4 ± 2.47 | – | could not inhibit | could not inhibit | could not inhibit | effect on mRNA expression of IL-1β (IL-1β mRNA; [4]): declined sharply |
| O=c1c(-c2ccc(O)cc2)coc2cc(O)ccc12 [Compound 12, daidzein] | > 200 | 35.5 ± 2.69 | 11.64 | – | – | – | effect on mRNA expression of IL-1β (IL-1β mRNA; [4]): inhibition; effect on mRNA expression of IL-6 (IL-6 mRNA; [4]): inhibition |
| Oc1ccc2c(c1)OC[C@H](c1cc3c(cc1O)OCO3)[C@H]2O [Compound 4, (3S,4R)-7,2′-dihydroxy-4′,5′-methylenedioxy-isoflavan-4-ol] | > 200 | 40.1 ± 6.94 | 7.50 | – | – | – | effect on mRNA expression of IL-1β (IL-1β mRNA; [8]): could inhibit |
| COc1ccc(-c2cc3cc(O)c(O)cc3oc2=O)c(OC)c1OC [Compound 6, 3-(2′,3′,4′-trimethoxyphenyl)-6,7-dihydroxycoumarin] | > 200 | 28.3 | 24.81 | can reduce | can reduce | can reduce | effect on mRNA expression of iNOS (iNOS mRNA; [7]): reduced significantly; effect on mRNA expression of IL-1β (IL-1β mRNA; [7]): reduced significantly; effect on mRNA expression of TNF-α (TNF-α mRNA; [7]): reduced significantly; IC50 [1, 6]: 28.3 ± 6.44 µM |
